Measured values published in a melting point compilation (Tetko et al.; mined from patent text by program, amines drawn as free bases though some values may be those of a salt).

First: CC1(C)c2cc(C#N)ccc2OC1O (stereo unspecified)
Second: N#Cc1ccc(-c2cc3ccc(C#N)cc3[nH]2)cc1
The melting point of the first is lower: 103 to 122 °C for the first, 270 to 275 °C for the second.

Compared with C(#Cc1cccs1)c1ccccc1, c1ccc2c(c1)CNc1ccccc1C2 is higher in melting point: 49 to 59 °C for the first, 117 to 122 °C for the second.

Compared with C[C@H](NC(=O)[C@H](Cc1ccccc1)NC(=O)OCc1ccccc1)C(=O)O, Nc1cc(OCc2ccccc2)c(OCc2ccccc2)cc1C=C(Br)Br is lower in melting point: 160 to 164 °C for the first, 95 to 98 °C for the second.

Compared with OCC(O)Cc1nccn1CCCCc1ccc(OCc2coc(/C=C/c3ccc(F)cc3F)n2)cc1 (stereo unspecified), COc1cccc(-c2c(/C=C/C(=O)NCCCCc3cccnc3)ccc3ccc(OC)cc23)c1 is lower in melting point: 126 to 128 °C for the first, 108 to 110 °C for the second.

Compared with CCCNS(=O)(=O)c1cc2cc(P(=O)(O)O)c(=O)[nH]c2cc1Cl, CCCCN(CCCC)S(=O)(=O)c1ccc(-n2oc(C)cc2=O)c([N+](=O)[O-])c1 is lower in melting point: greater than 300 °C for the first, 84 to 86 °C for the second.

First: Cc1nc(C=O)c2n1-c1ccc(Cl)cc1C(c1ccccc1Cl)=NC2
Second: O=C1C2CCCC2=Nc2ccccc2N1Cc1ccc(Cl)cc1Cl (stereo unspecified)
The melting point of the first is higher: 237 to 239 °C for the first, 144 to 145 °C for the second.

Compared with COc1ccc(C(=O)c2c(N)sc3c2CCN(Cc2ccccc2)C3)cc1, COc1ccc(C2=CCCCc3cc(OCc4ccccc4)ccc32)cc1 is lower in melting point: 164 to 165 °C for the first, 76 to 78 °C for the second.

Compared with NS(=O)(=O)c1ccc(-c2noc(-c3cnn4c(C(F)F)cc(-c5ccc(C(F)(F)F)cc5)nc34)n2)cc1, NS(=O)(=O)c1ccc(-n2nc(CCl)cc2-c2ccc(Cl)cc2)cc1 is lower in melting point: 283 °C for the first, 198 to 201 °C for the second.

First: O=C(Nc1n[nH]c(-c2ccc(F)cc2)c1-c1ccncc1)C(F)(F)F
Second: CN(Cc1cc(C(F)(F)F)cc(C(F)(F)F)c1)C(=O)c1c(-c2ccc(F)cc2)c2cnccc2c(=O)n1C
The melting point of the first is higher: 260 to 265 °C for the first, 136 to 138 °C for the second.

First: COc1ccc(NN=C(Sc2ccc(C#N)cc2)C(C)=O)cc1
Second: COc1ccc(-c2coc(-c3ccc(C(=O)O)cc3)n2)cc1
The melting point of the first is lower: 182 to 184 °C for the first, 286 to 287 °C for the second.

First: COc1cccc(O[C@@H]2COc3ccc(-c4ccc5cc(F)ccc5n4)cc3[C@@H]2O)c1 (relative stereo)
Second: O=C(O)Cc1cccc(C(=O)c2ccc(OCc3ccc4ccccc4n3)cc2)c1
The melting point of the first is lower: 131 to 132 °C for the first, 146 to 147 °C for the second.

Compared with CN1CCN(C2CC3(C)C(CCC4C3CCC3(C)C(O)C(N5CCCCC5)CC43)CC2O)CC1 (stereo unspecified), CC1=C2C(Br)CC3C4CCCC4(C)CCC3C2(C)CCC1=O (stereo unspecified) is lower in melting point: 230 to 234 °C for the first, 124 to 125 °C for the second.

First: O=C(CCC(F)(F)F)N[C@H]1CC[C@H](CCN2CCC(c3cccc4c3CCO4)CC2)CC1
Second: FC(F)(F)CN1CCC(n2ccc3ccccc32)CC1
The melting point of the first is higher: 200 °C for the first, 79 to 81 °C for the second.

First: Cc1c(-c2ccncc2)[nH]c(-c2ccncc2)c1C(=O)OCc1ccccc1
Second: CCOC(=O)c1ccc(Nc2nnc(-c3ccc(Oc4ccccc4)cc3)s2)cc1
The melting point of the first is lower: 204 to 205 °C for the first, 206 to 207 °C for the second.

First: Cn1nnnc1C(CBr)=C(c1ccc(F)cc1)c1ccc(F)cc1
Second: CS(=O)(=O)NCCn1nccc1-c1ccc(Oc2ccc(F)cc2)cc1
The melting point of the first is higher: 159 to 160 °C for the first, 96 to 98 °C for the second.

First: Nc1cccc(C(=O)O)c1NCc1ccccc1Cl
Second: NC(=O)c1ccnc(-c2ccccc2)c1N
The melting point of the first is higher: 203 to 204 °C for the first, 163 to 164 °C for the second.

Cc1sc2c(Br)c3ccccc3c(-c3ccc(O)c(N)c3)c2c1C and CON=Cc1sc(-c2ccc(O)cc2C)c(C)c1-c1ccc(O)c(F)c1 cannot be ordered by melting point: 173 to 175 °C for the first, 172 to 177 °C for the second.

First: S=c1sc(=Nc2ccc(Cl)cc2)n2n1CCCC2
Second: O=C(CCCCC(=O)N1CCN(c2cnccn2)CC1)c1ccc(Cl)cc1
The melting point of the first is lower: 96 to 97 °C for the first, 138 to 140 °C for the second.

First: CCCC(=O)Nc1n[nH]c2cc(-c3ccc(OC)cc3)ccc12
Second: CCCCCCCCOc1ccc(-c2ccc(Br)cc2)cc1
The melting point of the first is higher: 210 °C for the first, 120 °C for the second.

First: O=C(c1ncco1)c1ccc([N+](=O)[O-])cc1Cl
Second: O=C(CC(=O)c1ccc(C(F)(F)F)cc1[N+](=O)[O-])c1ccc([N+](=O)[O-])cc1
The melting point of the first is lower: 124 to 125 °C for the first, 139 to 140 °C for the second.

Compared with Cc1c(C=O)cc2c(c1C)OCC2, O=C(O)c1cc(F)c(F)c(C2CC2)c1F is higher in melting point: 60 °C for the first, 95 to 97 °C for the second.

First: C#CC(C)(C)N=C(NC#N)SC
Second: CC(C)(C)C1=CC(=Nc2ccc(CC#N)cc2)C=C(C(C)(C)C)C1=O
The melting point of the first is higher: 128 to 130 °C for the first, 126 to 128 °C for the second.

Compared with CCCNC(=S)Nc1nc2ccc(OC(F)(F)F)cc2s1, CCCCOc1ccc(CCCO)c(Oc2ncc(C(F)(F)F)cc2Cl)c1 is lower in melting point: 226 to 228 °C for the first, 72.6 to 72.7 °C for the second.

Compared with COc1ccc2c(C(=S)N(C)CC(=O)O)cccc2c1C(F)(F)C(F)(F)F, COc1cccc2c1CC(CC(=O)O)C(=O)C2 (stereo unspecified) is lower in melting point: 164 to 165 °C for the first, 129 to 131 °C for the second.

Compared with O=c1[nH]c(-c2cccc3ccccc23)nc2ccc(N3CCOCC3)cc12, COc1ccc(N2CCN(c3c(C)c(C)c4c(c3C)C(O)(c3ccccn3)C(C)(C)O4)CC2)cc1 (stereo unspecified) is lower in melting point: 291 to 293 °C for the first, 113 to 115 °C for the second.

Compared with CC(C)=C1C(=O)N(c2ccc(O)cc2)C(=O)/C1=C(\C)c1cc(C)oc1C, CC(=O)NCC1CN(c2ccc(-c3cccc(CF)c3)c(F)c2)C(=O)O1 (stereo unspecified) is lower in melting point: 206 to 208 °C for the first, 120 to 122 °C for the second.

First: COc1cc2c(cc1Br)C(c1ccccc1Cl)=NC1=C(C)NNC1=N2
Second: COc1ccc2nc(-n3nc4c(c3O)-c3ccccc3CC4)sc2c1
The melting point of the first is higher: 210 to 211 °C for the first, 204 to 205 °C for the second.

First: COc1cc2c(c3c1OC(C)(C)C3)C(c1cccc(C(=O)N[C@H]3CNC3=O)c1)=NC(C)(C)C2
Second: C#CCN(c1ccc(C(=O)OC(C)(C)C)c(F)c1)C1CCc2cc3nc(C)[nH]c(=O)c3cc21 (racemic)
The melting point of the first is lower: 154 to 157 °C for the first, 248 to 250 °C for the second.

First: O=C1Nc2ccc(C3CCCCC3)cc2C12OCCO2
Second: O=C1OCCC1Oc1cc(F)ccc1[N+](=O)[O-] (stereo unspecified)
The melting point of the first is higher: 178 to 180 °C for the first, 98 to 100 °C for the second.

First: CC1Cc2ccccc2CN(CO)C1=O (stereo unspecified)
Second: CC(=O)OCCn1c(C)nc2ccccc2c1=O
The melting point of the first is lower: 114 to 116 °C for the first, 158 to 160 °C for the second.

First: CCCCCCCCCCCC(=O)N[C@@H](Cc1ccc(O)cc1)C(=O)OC
Second: COc1ccc(Cl)cc1C(=O)NCCc1ccc(CCCCCCCCCC(=O)O)cc1
The melting point of the first is lower: 89 °C for the first, 97 to 100 °C for the second.

Compared with CCCCC[C@H]1CC[C@H](CCCCc2ccc(O)cc2)CC1, NC(=O)c1cccc(OCCCCCCCc2ccsc2)c1 is higher in melting point: 86 °C for the first, 97 to 100 °C for the second.

First: CCCCCC/C=C\CCCCCCCC(=O)N[C@H]1CCCNC(=O)C1
Second: Cc1nnc(NC2CCCCC2)s1
The melting point of the first is lower: 67 to 68 °C for the first, 192 to 194 °C for the second.

Compared with CSc1nc2c(cnn2CC(O)c2ccccc2)c(=O)[nH]1 (stereo unspecified), OC(c1ccccc1)c1ccc(-c2ccccc2)cc1 (stereo unspecified) is lower in melting point: 208 to 209 °C for the first, 72 to 73 °C for the second.

Compared with CCC(c1ccc(O)cc1)c1ccc(O)cc1, CON=C(C(=O)OC)c1cccc(OCc2ccccc2)c1 is lower in melting point: 131 to 133 °C for the first, 62 to 63 °C for the second.

Compared with CCOc1ccccc1-c1cc(OC)c(C(=O)N2Cc3cccn3Cc3ccccc32)cc1Cl, COc1ccc(Oc2ccccc2)cc1NC(=O)c1ccn2c1CSC2c1cccnc1 (stereo unspecified) is lower in melting point: 213 to 215 °C for the first, 158 °C for the second.

Compared with Cc1ccccc1OCC(O)COc1cccc2oc(C(=O)O)cc(=O)c12 (stereo unspecified), COc1cc(C(N)=O)c([N+](=O)[O-])cc1OCc1ccccc1 is higher in melting point: 95 to 97 °C for the first, 222 to 224 °C for the second.

First: CC1CCN(C(=O)[C@H]2CC=CC[C@@H]2NC(=O)C(F)(F)F)CC1
Second: CC(C)N1CCN(C(=O)c2cc(N)cc(C(F)(F)F)c2)CC1
The melting point of the first is higher: 169 to 170 °C for the first, 89 to 90 °C for the second.

First: CC(C)(C)c1cc(CCC(=O)NN2C(=O)C=CC2=O)cc(C(C)(C)C)c1O
Second: Cc1cc2c(-c3ccccc3)c(COS(C)(=O)=O)n(C)c(=O)c2cc1C
The melting point of the first is lower: 90 to 94 °C for the first, 150 to 151 °C for the second.

First: CNC(=O)c1cc2nc(C)c(C)nc2c(Cl)c1NC(=O)c1cc(C(F)(F)F)nn1-c1ncccc1Cl
Second: C#CC[C@H](c1nc2cccnc2c(=O)n1Nc1ccccc1)N(CCCN)C(=O)c1cc(F)c(F)c(F)c1F
The melting point of the first is higher: 221 to 224 °C for the first, 180 to 182 °C for the second.

First: CC(=O)OC1CSC(Sc2ccc(C(F)(F)F)cc2)C(OC(C)=O)C1OC(C)=O (stereo unspecified)
Second: OC1(c2ccc(C(F)(F)F)cc2)CCN(CCCc2noc3cc(F)ccc23)CC1
The melting point of the first is higher: 160 °C for the first, 150 to 152 °C for the second.

Compared with O=[N+]([O-])c1ccc(Oc2ccc(S(=O)(=O)c3ccc(Oc4ccc([N+](=O)[O-])c(O)c4)cc3)cc2)cc1O, O=C(O)c1cc(OCc2ccccc2)c(OCc2ccccc2)c(OCc2ccccc2)c1 is lower in melting point: 220 to 222 °C for the first, 194 to 195 °C for the second.

First: CSC(=S)C1(c2ccccn2)CCCS1 (stereo unspecified)
Second: O=c1[nH]c2cccnc2n1CCCN1CCC(C(O)(c2ccc(F)cc2)c2ccccn2)CC1 (stereo unspecified)
The melting point of the first is lower: 64 °C for the first, 140 to 144 °C for the second.

Compared with CC1(CC(CO)CO)SCCS1, NC(=O)CNC(=O)C1(N2CCCC2=O)CC1 is higher in melting point: 72 to 73 °C for the first, 180 °C for the second.

Compared with CC(C)(C(=O)c1ccc(S)cc1)N1CCOCC1, CS(=O)(=O)NC1CCC(NC(=O)c2ccc(F)cc2)CC1 (stereo unspecified) is higher in melting point: 68 to 69 °C for the first, 269 to 270 °C for the second.

Compared with CCCC(C)(C)c1nc(CC(=O)O)c(C)o1, CCCCCN(C(=O)Nc1ccc2c(c1)C(C)(C)CCC2(C)C)c1ccc(C(=O)O)cc1 is higher in melting point: 97 to 98 °C for the first, 201 to 202 °C for the second.

Compared with COc1cc2ncc(C#N)c(Nc3ccc(F)c(Cl)c3)c2cc1NC(=O)CC(CN1CCC(O)C1)N1CCC(O)C1 (stereo unspecified), Cc1ccccc1NC(=O)NC1N=C(c2ccccc2F)c2ccccc2N(CC(=O)N2CC3CCC(CC3)C2)C1=O (racemic) is higher in melting point: 139 to 143 °C for the first, 167 to 172 °C for the second.

First: CN(Cc1cc2c3c(c1)c(=O)c(C(=O)NCc1ccc(Cl)cc1)cn3CC(=O)N2CCO)C[C@@H](O)c1ccco1
Second: CC(C)CNC(=O)c1sc(Oc2ccc3c(c2)OCO3)c2c1CCc1cnn(C)c1-2
The melting point of the first is higher: 166 to 167 °C for the first, 155 to 157 °C for the second.

Compared with O=S(=O)(NCc1ccnnc1)c1cc(Br)cs1, NNC(=O)c1ncccn1 is higher in melting point: 120 to 122 °C for the first, 173 to 175 °C for the second.

Compared with CC(=O)NC(=O)N1CC1C#N (stereo unspecified), COc1cc(OC)c(S(C)(=O)=O)cc1C(=O)O is higher in melting point: 139 to 142 °C for the first, 292 °C for the second.

In the case of N#CC(C#N)=C1Sc2nc3ccc(Cl)cc3nc2S1, the melting point is reported as greater than 300 °C.
